Structures can show the parent of a compound that is named as a salt.
Tests used:
breast cancer patients = conditions: recent clinical trials; cited from earlier work
[1] = system: other drug targets of FDA-approved cancer therapies; test: interaction profiling
[2] = system: nuclear hormone receptors; test: interaction profiling
DRD2L [3] = molecular target: T1, DRD2L (Homo sapiens, UniProt P14416); test: antagonism of arrestin recruitment to DRD2L, Gaddam/Schild EC50 shift analysis; type: cell-based; design: expressed in transfected cells; conditions: dopamine completely reverses dose-dependent antagonism of up to 100 uM ONC201
T1 sequence (P14416 whole entry): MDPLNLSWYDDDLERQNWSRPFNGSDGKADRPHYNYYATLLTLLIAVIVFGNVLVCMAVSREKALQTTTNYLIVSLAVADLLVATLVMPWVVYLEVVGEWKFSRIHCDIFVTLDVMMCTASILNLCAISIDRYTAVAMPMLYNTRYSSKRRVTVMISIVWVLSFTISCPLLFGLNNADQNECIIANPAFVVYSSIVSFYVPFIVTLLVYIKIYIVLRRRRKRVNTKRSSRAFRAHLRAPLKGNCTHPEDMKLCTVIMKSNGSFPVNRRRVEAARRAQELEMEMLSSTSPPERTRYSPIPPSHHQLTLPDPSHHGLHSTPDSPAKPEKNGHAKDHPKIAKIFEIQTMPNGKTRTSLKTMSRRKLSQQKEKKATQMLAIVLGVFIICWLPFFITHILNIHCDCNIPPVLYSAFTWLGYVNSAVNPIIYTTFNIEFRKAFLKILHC
Description: (§1) To test the target prediction, in vitro profiling of GPCR activity using a hetereologous reporter assay for arrestin recruitment, a hallmark of GPCR activation was performed.

DRD2L [4] = molecular target: T1, DRD2L; conditions: another measure of DRD2L activation
[5] = system: D2-like (DRD2/3/4) subfamily of dopamine receptors; conditions: arrestin recruitment GPCR profiling
Description: as §1

DRD4 = DRD4 (Homo sapiens, UniProt P21917); conditions: arrestin recruitment GPCR profiling; potency relative to DRD2 and DRD3
Sequence of DRD4 (P21917 whole entry): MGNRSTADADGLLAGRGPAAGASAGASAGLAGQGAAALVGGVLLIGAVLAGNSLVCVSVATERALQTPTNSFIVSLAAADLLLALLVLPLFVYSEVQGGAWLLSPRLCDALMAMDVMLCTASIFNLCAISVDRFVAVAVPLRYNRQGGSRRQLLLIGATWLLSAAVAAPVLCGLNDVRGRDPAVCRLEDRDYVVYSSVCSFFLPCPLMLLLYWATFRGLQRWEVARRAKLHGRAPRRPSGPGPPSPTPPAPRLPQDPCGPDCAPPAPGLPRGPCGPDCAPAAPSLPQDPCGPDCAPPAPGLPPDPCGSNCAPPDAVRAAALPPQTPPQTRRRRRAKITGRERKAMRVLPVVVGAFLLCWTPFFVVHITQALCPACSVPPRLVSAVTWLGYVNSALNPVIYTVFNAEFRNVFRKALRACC
Description: as §1

[6] = system: D1-like (DRD1/5) subfamily of dopamine receptors; conditions: arrestin recruitment GPCR profiling
Description: as §1

[7] = system: short and long isoforms of DRD2; conditions: arrestin recruitment GPCR profiling
Description: as §1

other GPCRs = test: in vitro profiling of GPCR activity, heterologous reporter assay for arrestin recruitment; type: cell-based; conditions: under the evaluated conditions
Description: as §1

SMILES	patients showing any detectable response after treatment (breast cancer patients) [%]	interactions with other drug targets of FDA-approved cancer therapies [1]	interactions with nuclear hormone receptors [2]	mode of antagonism of DRD2L (reversal by dopamine) (DRD2L [3])	cAMP modulation in response to compound (DRD2L [4])	antagonism of D2-like dopamine receptors [5]	antagonism of DRD4 (DRD4)	antagonism of D1-like dopamine receptors [6]	antagonism of DRD2 short and long isoforms [7]	interactions with the kinome (the kinome)	antagonism of other GPCRs (other GPCRs)
C=C1C[C@@H]2CC[C@@]34C[C@H]5O[C@H]6[C@@H](O3)[C@H]3O[C@H](CC[C@@H]3O[C@H]6[C@H]5O4)CC(=O)C[C@@H]3[C@@H](OC)[C@@H](C[C@H](O)CN)O[C@H]3C[C@H]3O[C@@H](CC[C@@H]1O2)C[C@@H](C)C3=C [Eribulin, Eribulin mesylate]	< 50	–	–	–	–	–	–	–	–	–	–
Cc1ccccc1CN1C(=O)C2=C(CCN(Cc3ccccc3)C2)N2CCN=C12 [ONC201]	–	no significant interactions	no significant interactions	direct, competitive antagonism	Confirmatory results	selectively antagonizes	weaker potency	but not D1-like (DRD1/5)	antagonized	no significant interactions	no observed antagonism
